Results reported in BindingDB's records for PubMed 9808667 (Dupont Pharmaceuticals, 1998).
Square brackets hold non-standard residues; d marks the D form. Peptide text beside a SMILES is read from it.

Target: T1, Galanin receptor type 1 (Homo sapiens, UniProt P47211)
T1 sequence (P47211 whole entry): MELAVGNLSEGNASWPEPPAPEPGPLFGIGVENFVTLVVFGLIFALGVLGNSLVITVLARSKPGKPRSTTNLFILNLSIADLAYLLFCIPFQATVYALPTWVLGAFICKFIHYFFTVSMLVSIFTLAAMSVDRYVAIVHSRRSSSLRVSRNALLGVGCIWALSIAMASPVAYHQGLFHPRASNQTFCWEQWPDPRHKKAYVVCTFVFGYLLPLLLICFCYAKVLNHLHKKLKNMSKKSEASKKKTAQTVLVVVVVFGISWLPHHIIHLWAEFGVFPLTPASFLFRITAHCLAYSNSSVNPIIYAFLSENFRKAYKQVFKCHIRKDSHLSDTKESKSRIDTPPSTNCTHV

Ki: 685 nM
SMILES: CC(C)C[C@H](NC(=O)[C@H](CC(C)C)NC(=O)[C@@H](Cc1c[nH]c2ccccc12)NC(=O)[C@H](Cc1ccccc1)NC(=O)[C@@H](Cc1c[nH]c2ccccc12)NC(=O)[C@H](CCC(N)=O)NC(=O)[C@H](CCC(N)=O)NC(=O)[C@@H]1CCCN1C(=O)[C@H](CCCCN)NC(=O)[C@@H]1CCCN1C(=O)[C@@H](CCCNC(=N)N)NC(=O)[C@@H]1CCCN1C(=O)CNC(=O)[C@H](CC(C)C)NC(=O)[C@H](CC(C)C)NC(=O)[C@H](Cc1ccc(O)cc1)NC(=O)CNC(=O)[C@H](C)NC(=O)[C@H](CO)NC(=O)[C@H](CC(N)=O)NC(=O)[C@H](CC(C)C)NC(=O)[C@@H](NC(=O)[C@H](Cc1c[nH]c2ccccc12)NC(=O)CN)[C@@H](C)O)C(N)=O [Gal(1-13)-Std I] (H-GWTLNSAGYLLGP[dR]PKPQQ[dW]F[dW]LL-NH2)
